Reference: US6531496B1 (Bayer Aktiengesellschaft, priority 1999, dated 2003)
Values after ≈ are worked out from the molar mass of the structure shown.

Assays:
[1] = logP by HPLC (EEC Directive 79/831 Annex V. A8, gradient method); format: physicochemical
Plasmopara viticola = assay: Plasmopara test (grapevine)/protective; format: in vivo; conditions: 144 h, protective, evaluated 6 days after inoculation, read-out: Efficacy in %
Procedure: Plasmopara Test (Grapevine)/Protective Solvent: 47 parts by weight of acetone Emulsifier: 3 parts by weight of alkylaryl polyglycol ether To prepare a suitable active compound preparation, 1 part by weight of active compound is mixed with the stated amounts of solvent and emulsifier, and the concentrate is diluted with water to the desired concentration. To test for protective activity, young plants are sprayed with the active compound preparation at the application rate stated. After the spray coating has dried on, the plants are inoculated with an aqueous spore suspension of Plasmopara viticola and then remain for 1 day in an incubation cabinet at approx. 20° C. and a relative atmospheric humidity of 100%. […] The plants are then moistened and placed in an incubation cabinet for 1 day.

Venturia inaequalis = assay: Venturia test (apple)/protective; format: in vivo; conditions: 288 h, protective, evaluated 12 days after inoculation, read-out: Efficacy in %
Procedure: Venturia Test (Apple)/Protective Solvent: 47 parts by weight of acetone Emulsifier: 3 parts by weight of alkylaryl polyglycol ether To prepare a suitable active compound preparation, 1 part by weight of active compound is mixed with the stated amounts of solvent and emulsifier, and the concentrate is diluted with water to the desired concentration. To test for protective activity, young plants are sprayed with the active compound preparation at the application rate stated. After the spray coating has dried on, the plants are inoculated with an aqueous conidial suspension of the apple scab pathogen Venturia inaequalis and then remain for 1 day in an incubation cabinet at approx. 20° C. and 100% relative atmospheric humidity.

[2] = tested on: green peach aphid (Myzus persicae); assay: Myzus test; format: in vivo; conditions: active compound concentration 0.01%
Procedure: Solvent: 6 parts by weight of dimethylformamide
67 parts by weight of methanol
Emulsifier: 2 parts by weight of alkylaryl polyglcol ether
To prepare a suitable active compound preparation, 1 part by weight of active compound is mixed with the stated amount of solvent and the stated amount of emulsifier, and the concentrate is diluted with emulsifier-containing water to the desired concentrations.
Field bean (Vicia faba) seedlings which are infested with the green peach aphid (Myzus persicae) are immersed into an active compound preparation of the desired concentration and placed into a plastic box.
After the desired period of time, the destruction is determined in %. 100% means that all the animals have been killed; 0% means that none of the animals have been killed.

Aspergillus Niger = assay: Minimum inhibitory concentration on malt extract agar; format: cell-based; conditions: 2 weeks at 28° C.
Procedure: (§1) To confirm the activity against fungi (Penicillium brevicaule, Chaetomium globosum, Aspergillus Niger), the minimum inhibitory concentrations (MICs) of agents according to the invention are determined:
(§2) Active compounds according to the invention are added in concentrations of from 0.1 mg/l to 5 000 mg/l to an agar prepared using malt extract. […] The MIC is the lowest concentration of active compound at which no growth whatsoever by the microbial species used occurs; it is indicated in the table which follows.

Chaetomium globosum = assay: as above; format: cell-based; conditions: 2 weeks at 28° C.
Procedure: as §1, §2

Penicillium brevicaule = assay: as above; format: cell-based; conditions: 2 weeks at 28° C.; for MIC: Penicillium, 336 h, read-out: Minimum inhibitory concentrations Penicillium brevicaule
Procedure: as §1, §2

[3] = tested on: greenhouse red spider mite (Tetranychus urticae); assay: Tetranychus test (OP-resistant/immersion treatment); format: in vivo; conditions: active compound concentration 0.01%
Procedure: Tetranychus Test (OP-resistant/Immersion Treatment)
Solvent: 3 parts by weight of dimethylformamide
Emulsifier: 1 part by weight of alkylaryl polyglycol ether
To prepare a suitable active compound preparation, 1 part by weight of active compound is mixed with the stated amount of solvent and the stated amount of emulsifier, and the concentrate is diluted with water to the desired concentrations.
Bean plants (Phaseolus vulgaris) which are severely infested by all stages of the greenhouse red spider mite (Tetranychus urticae) are immersed into an active compound preparation of the desired concentration.
After the desired time, the efficacy is determined in %. 100% means that all the spider mites have been killed; 0% means that none of the spider mites have been killed.

Plutella = Plutella test/synthetic feed; format: in vivo; conditions: active compound concentration 0.1%, after 7 days
Procedure: Plutella Test/Synthetic Feed Solvent: 100 parts by weight of acetone […] 1900 parts by weight of methanol To prepare a suitable active compound preparation, 1 part by weight of active compound is mixed with the stated amount of solvent and the concentrate is diluted with methanol to the desired concentration. A stated amount of active compound preparation of the desired concentration is pipetted onto a standardized amount of synthetic feed. After the methanol has evaporated, the lid of a film box, populated with approx. 100 Plutella eggs, is placed over each cavity. The freshly hatched larvae crawl onto the treated synthetic feed. After the desired time, the destruction is determined in %. 100% means that all the animals have been killed; 0% means that none of the animals have been killed.

[4] = gradient of acetonitrile/0.1% aqueous phosphoric acid, HPLC, gradient method, acetonitrile/0.1% aqueous phosphoric acid, Table 1

| SMILES | chromatographic logP [1, 4] | pest or weed control at 250 g/ha (Plasmopara viticola) [%] | pest or weed control at 250 g/ha (Venturia inaequalis) [%] | also measured |
| --- | --- | --- | --- | --- |
| O=S1(=O)CSC(Oc2ccc3oc(=S)sc3c2)=N1 [Example 141] |  | ≥ 90 | ≥ 90 | chromatographic logP ([1]; Table 2): 2.64 |
| C/C(=N/OC(C)(C)C)c1ccc(OC2=NS(=O)(=O)CS2)cc1 [Example 24] | 3.98 |  | ≥ 90 |  |
| O=C(c1ccccc1)c1cccc(OC2=NS(=O)(=O)CS2)c1 [Example 27] | 2.66 | ≥ 90 | ≥ 90 |  |
| O=S1(=O)CSC(Oc2cccc(Cl)c2Cl)=N1 [Example 101] |  | ≥ 90 | ≥ 90 |  |
| O=S1(=O)CSC(Oc2ccc(Cl)c(Cl)c2)=N1 [Example 100] |  | ≥ 90 | ≥ 90 | Minimum inhibitory concentrations Aspergillus Niger (Aspergillus Niger): 100 ppm; Minimum inhibitory concentrations Chaetomium globosum (Chaetomium globosum): 50 ppm; Minimum inhibitory concentrations Penicillium brevicaule (Penicillium brevicaule): 20 ppm; MIC (Penicillium brevicaule): 10 to 100 µg/mL (≈ 33.5 to 335 µM) |
| C/C(=N/OCc1ccccc1)c1ccc(OC2=NS(=O)(=O)CS2)cc1 [Example 22] | 3.67 |  |  | Destruction in % after 6^d [2]: 100% |
| C/C(=N/OC(C)(C)C)c1cccc(OC2=NS(=O)(=O)CS2)c1 [Example 28] | 3.94 | ≥ 90 | ≥ 90 |  |
| CO/N=C(/C)c1ccc(OC2=NS(=O)(=O)CS2)cc1 [Example 20] | 2.62 |  |  | Destruction in % after 7^h ([3]; after 7^h): 95%; destruction after 7 days ([3]; after 7 days): 95% |
| O=S1(=O)CSC(Oc2ccccc2Cl)=N1 [Example 95] |  | ≥ 90 | ≥ 90 |  |
| Cc1cccc(OC2=NS(=O)(=O)CS2)c1 [Example 106] |  | ≥ 90 | ≥ 90 |  |
| Cc1ccc(OC2=NS(=O)(=O)CS2)cc1 [Example 105] |  | ≥ 90 | ≥ 90 |  |
| Cc1cc(Cl)cc(OC2=NS(=O)(=O)CS2)c1 [Example 1, 3-(3-chloro-5-methylphenoxy)-1λ^6,4,2-dithiazole-1,1(5H)-dione] |  | ≥ 90 | ≥ 90 | MIC (Penicillium brevicaule): 10 to 100 µg/mL (≈ 36 to 360 µM) |
| O=S1(=O)CSC(Oc2ccccc2)=N1 [Example 1] |  |  |  | MIC (Aspergillus Niger; Aspergillus niger, 336 h, read-out: Minimum inhibitory concentrations Aspergillus Niger): 100 µg/mL (≈ 436 µM); MIC (Chaetomium globosum; Chaetomium globosum, 336 h, read-out: Minimum inhibitory concentrations Chaetomium globosum): 100 µg/mL (≈ 436 µM); MIC (Penicillium brevicaule): 100 µg/mL (≈ 436 µM) |
| O=S1(=O)CSC(Oc2ccc(Cl)cc2)=N1 [Example 93] |  |  |  | Minimum inhibitory concentrations Aspergillus Niger (Aspergillus Niger): 100 ppm; Minimum inhibitory concentrations Chaetomium globosum (Chaetomium globosum): 50 ppm; Minimum inhibitory concentrations Penicillium brevicaule (Penicillium brevicaule): 20 ppm; MIC (Penicillium brevicaule): 10 to 100 µg/mL (≈ 37.9 to 379 µM) |
| O=S1(=O)CSC(Oc2cccc(Cl)c2)=N1 [Example 94] |  |  | ≥ 90 | Minimum inhibitory concentrations Aspergillus Niger (Aspergillus Niger): 100 ppm; Minimum inhibitory concentrations Chaetomium globosum (Chaetomium globosum): 100 ppm; Minimum inhibitory concentrations Penicillium brevicaule (Penicillium brevicaule): 20 ppm; MIC (Penicillium brevicaule): 10 to 100 µg/mL (≈ 37.9 to 379 µM) |
| Cc1cc(Cl)cc(OC2=NS(=O)(=O)CS2)c1 [Example 92] |  |  |  | Minimum inhibitory concentrations Aspergillus Niger (Aspergillus Niger): 100 ppm; Minimum inhibitory concentrations Chaetomium globosum (Chaetomium globosum): 100 ppm; Minimum inhibitory concentrations Penicillium brevicaule (Penicillium brevicaule): 20 ppm |
| O=S1(=O)CSC(Oc2ccc(Cl)cc2Cl)=N1 [Example 96] |  | ≥ 90 | ≥ 90 |  |
| Nc1ccc(OC2=NS(=O)(=O)CS2)c(Cl)c1Cl [Example 14] |  | ≥ 90 |  | Destruction in % after 7^d (Plutella): 95% |

The next lines start with results.

| chromatographic logP [1, 4] | SMILES | pest or weed control at 250 g/ha (Plasmopara viticola) [%] | pest or weed control at 250 g/ha (Venturia inaequalis) [%] | also measured |
| --- | --- | --- | --- | --- |
| 1.73 | CC(=O)c1cccc(OC2=NS(=O)(=O)CS2)c1 [Example 40] | ≥ 90 | ≥ 90 | Destruction in % after 6^d [2]: 90% |
| 2.05 | O=S1(=O)CSC(Oc2cccc(F)c2)=N1 [Example 111] |  | ≥ 90 |  |
| 2.02 | O=S1(=O)CSC(Oc2ccccc2F)=N1 [Example 110] |  | ≥ 90 |  |
| 2.3 | O=S1(=O)CSC(Oc2ccccc2Br)=N1 [Example 108] |  | ≥ 90 |  |
| 2.62 | Cc1ccc(Cl)c(OC2=NS(=O)(=O)CS2)c1 [Example 115] |  | ≥ 90 |  |
| 2.63 | O=S1(=O)CSC(Oc2ccccc2OC(F)(F)F)=N1 [Example 133] |  | ≥ 90 |  |
| 3.27 | CC(C)(C)c1cccc(OC2=NS(=O)(=O)CS2)c1 [Example 114] |  | ≥ 90 |  |
